# In patent US8263353B2, “Method for detecting autoprocessed, secreted PCSK9” (Merck Sharp & Dohme Corp., priority 2007, dated 2012):
# Assays:
# Type in all cases: cell-based
# [1] = system: diI-LDL uptake in HEK293 cells; test: DiI-LDL uptake assay (PCSK9-dependent LDL-uptake assay)
# Experimental: Blood for LDL isolation was obtained from healthy human volunteers. Blood (200 ml) was collected in EDTA tubes and spun at 15,000 rpm for 15 min at 4° C. Plasma density was adjusted to 1.02 g/ml with sodium bromide and the tubes were centrifuged at 45,000 rpm in Ti70 ultracentrifuge rotor for 20 hr. The VLDL layer was removed and the bottom layer was recalibrated to a density of 1.063 g/ml with sodium bromide. The tubes were again centrifuged at 45,000 rpm in Ti70 rotor for 72 hr. The LDL layer was removed and dialysed against PBS pH 7.4 and 0.5 M EDTA. The final protein concentration was determined using a BCA Protein Assay Kit. LDL was labeled with a fluorescent DiI particle (Molecular Probes). A stock solution containing 3 mg of DiI dissolved in 1 ml of dimethyl sulfoxide (DMSO) was prepared. This stock solution of D11 was added to LDL at a final concentration of 135 μg of DiI to 1 ml of LDL. The labeling reaction was incubated at 37° C. for 24 hr in the dark followed by LDL isolation as mentioned above.
# HEK293 cells stably expressing the vector pcDNA3.1 alone were plated in a 96-well poly D-lysine coated plate (Corning) at a density of 30,000 cells/well in 1×DMEM, containing 1 mg/ml G418 and 10% FBS (HEK293). A similar plating protocol was followed for HepG2 and CHO cells except that G418 was not added to the media. After 24 hr, the media was switched to DMEM media lacking serum. After 18 hr, the media was removed and the cells were washed with OptiMEM (Invitrogen). Purified PCSK9 protein was added to the cells in 100 μl of mixture B (DMEM containing 10% lipoprotein deficient serum (LPDS) (Intracel) and 10 μg/ml dI-LDL). To measure non-specific binding, 100 μl of mixture B that also contained 400 μg/ml unlabeled LDL was added to control wells. The plates were incubated at 37° C. for 6.5 hours and the cells were washed quickly in Tris-buffered saline (TBS, Biorad) containing 2 mg/ml Bovine Serum Albumin (BSA) (Sigma). The wash step was repeated, but this time the wash buffer was incubated for 2 min with the cells. Last, the cells were quickly washed twice with TBS (without BSA) and lysed in 100 μl RIPA buffer. The lysate was transferred to a 96-well black plate (Thermo Labsystem) and fluorescence was measured using a SpectraMAX tunable spectrofluorometer (Molecular Devices) at an excitation wavelength of 520 nm and an emission wavelength of […] Total cellular protein was measured in each well using a BCA Protein Assay and the fluorescence units were normalized to total protein. The amount of specific LDL uptake (specific counts) is the difference between the total counts measured (in the absence of unlabeled LDL) and the counts measured in the presence of an excess of unlabeled LDL (non-specific background fluorescence). […]
# PCSK9 processing [2] = target: T1, PCSK9 processing (Homo sapiens, UniProt Q8NBP7, G670E/V474I); test: Co-transfection of PCSK9 pro domain with wild type V5/His-tagged PCSK9, western blot of cell lysate and media; details: co-transfected pro domain
# T1 construct: expressed in transfected cells
# T1 sequence (Q8NBP7 31-692 V474I/G670E): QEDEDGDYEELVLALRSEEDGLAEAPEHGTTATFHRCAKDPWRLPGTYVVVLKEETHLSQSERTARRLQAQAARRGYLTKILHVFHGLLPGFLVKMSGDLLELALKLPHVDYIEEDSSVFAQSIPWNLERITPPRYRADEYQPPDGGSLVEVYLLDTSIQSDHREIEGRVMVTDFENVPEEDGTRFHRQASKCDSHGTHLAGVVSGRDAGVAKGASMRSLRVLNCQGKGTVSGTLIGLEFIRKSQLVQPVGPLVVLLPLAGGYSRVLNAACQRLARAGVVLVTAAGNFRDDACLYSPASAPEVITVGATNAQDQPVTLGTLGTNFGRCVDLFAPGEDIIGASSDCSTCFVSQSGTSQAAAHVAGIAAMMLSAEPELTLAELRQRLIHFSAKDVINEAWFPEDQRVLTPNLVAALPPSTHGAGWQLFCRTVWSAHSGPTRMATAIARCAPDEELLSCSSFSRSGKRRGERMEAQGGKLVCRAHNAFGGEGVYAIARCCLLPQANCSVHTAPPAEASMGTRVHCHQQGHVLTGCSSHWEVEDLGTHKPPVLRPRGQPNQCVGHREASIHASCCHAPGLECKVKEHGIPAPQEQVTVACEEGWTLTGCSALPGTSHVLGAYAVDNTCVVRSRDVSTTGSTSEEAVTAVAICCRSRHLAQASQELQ
# Experimental: FIGS. 10A and 10B illustrate inhibition of PSCK9 processing through co-transfection of PCSK9 pro domain. The figure illustrates the inhibition of PCSK9 processing is similar whether the domain is untagged, or tagged at the N-terminus with either an HA or His tag. […] The lanes are in order wild-type; wild-type; pro domain; HA pro domain; His pro domain.
# Cells carrying vector alone (pcDNA3.1) or vector plus PCSK9 (PCSK9-152 FLAG-V5/His and PCSK9-152 FLAG-V5/His-S386A) were plated in 1×DMEM containing 1 mg/ml G418 supplemented with 10% FBS. After 24 hr, the media was switched to DMEM media lacking serum. After an additional 6 hr, the media was removed and the cells were lysed in RIPA buffer (TEKNOVA) plus Complete protease inhibitor cocktail (Roche). Protein concentration was assayed with BCA Protein Assay Kit (Pierce). […] of proteins from lysate or 15 μl media were loaded on 10-20% Tris-Glycine gels (Invitrogen). Following transfer, membranes were successively incubated with 1:5000 anti-VS (Invitrogen), 1:3000 anti-FLAG ml (Sigma-Aldrich Co.) or 1:3000 anti_FLAG m2 (Sigma-Aldrich Co.) primary antibody and 1:3000 anti-mouse IgG (H+L) alkaline phosphatase conjugate (Promega). Bands were subsequently detected using a 1-step NBT/BCIP Kit (Pierce) according to manufacturer's instructions. […]
# PCSK9 processing [3] = target: T2, PCSK9 processing (Homo sapiens, UniProt Q8NBP7, D186A/G670E/V474I); test: Western blot of HEK293 cells stably expressing PCSK9 mutant D186A; details: HEK293 stable cell line; FIG. 11A
# T2 construct: expressed in transfected cells
# T2 sequence (Q8NBP7 31-692 D186A/V474I/G670E): as the sequence (Q8NBP7 31-692 V474I/G670E) above, with D156A counted along it
# Experimental: Cells carrying vector alone (pcDNA3.1) or vector plus PCSK9 (PCSK9-152 FLAG-V5/His and PCSK9-152 FLAG-V5/His-S386A) were plated in 1×DMEM containing 1 mg/ml G418 supplemented with 10% FBS. After 24 hr, the media was switched to DMEM media lacking serum. After an additional 6 hr, the media was removed and the cells were lysed in RIPA buffer (TEKNOVA) plus Complete protease inhibitor cocktail (Roche). Protein concentration was assayed with BCA Protein Assay Kit (Pierce). […] of proteins from lysate or 15 μl media were loaded on 10-20% Tris-Glycine gels (Invitrogen). Following transfer, membranes were successively incubated with 1:5000 anti-VS (Invitrogen), 1:3000 anti-FLAG ml (Sigma-Aldrich Co.) or 1:3000 anti_FLAG m2 (Sigma-Aldrich Co.) primary antibody and 1:3000 anti-mouse IgG (H+L) alkaline phosphatase conjugate (Promega). Bands were subsequently detected using a 1-step NBT/BCIP Kit (Pierce) according to manufacturer's instructions.
# 420:55-67. […] Media from the D186A stable cell line was purified using column chromatography (as described) to obtain both purified nonprocessed and processed D186A (FIG. 11B). Similar to the WT PCSK9 protein processed D186A retains the pro domain after several column purifications (FIG. 11B).
substance,measurement,setting,value
"processed D186A: Purified secreted, autoprocessed form of human PCSK9 catalytic-triad mutant D186A, retaining the pro domain",fold weaker in potency than WT PCSK9,[1]; HEK293 cells,approximately 4 fold
same,EC50,"[1]; HEK293 cells, purified protein, FIG. 11C, read-out: EC50 (amount of PCSK9 protein required for 50% inhibition of diI-LDL uptake)",189 nM
"PCSK9 pro domain: Human PCSK9 pro domain (SEQ ID NO: 20, residues 31-152) expressed from co-transfected nucleic acid",amount of processed PCSK9 in cell lysate compared to cells expressing wild type alone,"PCSK9 processing [2]; cell lysate, FIG. 10A",reduced
same,processed PCSK9 detected in the media,"PCSK9 processing [2]; media, FIG. 10B",less processed PCSK9 was detected
D186A PCSK9 mutant: Human PCSK9 single catalytic-triad mutant D186A stably expressed in HEK293 cells,extent of processing,PCSK9 processing [3],10-20%
"nonprocessed D186A: Purified secreted, nonprocessed form of human PCSK9 mutant D186A (SEQ ID NO: 34)",fold less active than processed PCSK9 in PCSK9-dependent LDL uptake,[1]; FIG. 11C,~20 fold
same,activity in PCSK9-dependent LDL-uptake assay,"[1]; HEK293 cells, purified protein, FIG. 11C",only weakly active
